Measurements reported in PubChem BioAssay (NCI).
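Exposure lasted 48 hours, with cells grown in 96-well plates and compounds tested at five concentrations. GI50 marks 50% less growth. Definition used: TGI = concentration required for complete inhibition of growth.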

Key:
Assay in all cases: growth of human tumour cells (NCI), 48 h
[1] = system: HCC-2998 colon
[2] = system: COLO 205 colon
[3] = system: HCT-15 colon
[4] = system: ACHN renal
[5] = system: T-47D breast
[6] = system: NCI-H226 lung
[7] = system: HCT-116 colon
[8] = system: SNB-19 CNS
[9] = system: DU-145 prostate
[10] = system: OVCAR-4 ovarian

SMILES: CC[C@@]1(O)C(=O)NCc2c1cc1n(c2=O)Cc2cc3ccccc3nc2-1
- GI50 [1]: 74 µM
- TGI [1]: > 100 µM
- GI50 [2]: 39.2 µM
- TGI [2]: > 100 µM
- GI50 [3]: 25.8 µM
- TGI [3]: > 100 µM
- GI50 [4]: 0.578 µM
- GI50 [5]: 2.63 µM
- TGI [5]: > 100 µM
- GI50 [6]: > 100 µM
- TGI [6]: > 100 µM
- GI50 [7]: 2.75 µM
- TGI [7]: > 74.2 µM
- GI50 [8]: 1.92 µM
- TGI [8]: > 100 µM
- GI50 [9]: 2.28 µM
- TGI [9]: > 45.8 µM
- GI50 [10]: 35.5 µM
- TGI [10]: > 100 µM

SMILES: CN1/C(=C\C(I)C(I)C2=[N+](C)c3ccccc3C2(C)C)C(C)(C)c2ccccc21 (centres undefined)
- GI50 [1]: 0.371 µM
- TGI [1]: 16.9 µM
- GI50 [2]: 0.21 µM
- TGI [2]: 0.733 µM
- GI50 [3]: 0.997 µM
- TGI [3]: > 37.6 µM
- GI50 [4]: 0.665 µM
- TGI [4]: 26.4 µM
- GI50 [5]: 0.0852 µM
- TGI [5]: 9.39 µM
- GI50 [6]: 0.2 µM
- TGI [6]: 24.2 µM
- GI50 [7]: 0.0852 µM
- TGI [7]: 11.6 µM
- GI50 [8]: 0.291 µM
- TGI [8]: 40.3 µM
- GI50 [9]: 0.386 µM
- TGI [9]: > 56.7 µM
- GI50 [10]: 0.25 µM
- TGI [10]: 22.5 µM

SMILES: O=C(c1ccccc1Nc1ccnc(C(F)(F)F)c1)N1CCN(c2cccc(Cl)c2)CC1
- GI50 [1]: 24.6 µM
- TGI [1]: > 72.9 µM
- GI50 [2]: 15.1 µM
- TGI [2]: 30.1 µM
- GI50 [3]: 24.1 µM
- TGI [3]: > 100 µM
- GI50 [4]: 22.9 µM
- TGI [4]: 86.1 µM
- GI50 [5]: 10.7 µM
- TGI [5]: 74.4 µM
- GI50 [6]: 15 µM
- TGI [6]: 49.2 µM
- GI50 [7]: 12.2 µM
- TGI [7]: 29 µM
- GI50 [8]: 26.1 µM
- TGI [8]: > 100 µM
- GI50 [9]: 28.1 µM
- TGI [9]: > 100 µM
- GI50 [10]: 12.7 µM
- TGI [10]: > 100 µM

SMILES: CC(=O)OCC1OC(OC2C(COC(C)=O)OC(OCCC[S-])C(OC(C)=O)C2OC(C)=O)C(OC(C)=O)C(OC(C)=O)C1OC(C)=O.[Au+].c1ccc(CN2[CH-]N(Cc3ccccc3)C(c3ccccc3)=C2c2ccccc2)cc1 (centres undefined)
- GI50 [1]: 3.49 µM
- TGI [1]: 15.4 µM
- GI50 [2]: 2.68 µM
- TGI [2]: 7.61 µM
- GI50 [3]: 3.17 µM
- TGI [3]: 12.2 µM
- GI50 [4]: 2.9 µM
- TGI [4]: 10.6 µM
- GI50 [5]: 3.28 µM
- TGI [5]: 18.5 µM
- GI50 [6]: 4.68 µM
- TGI [6]: 33 µM
- GI50 [7]: 2.72 µM
- TGI [7]: 10.9 µM
- GI50 [8]: 3.66 µM
- TGI [8]: 15.2 µM
- GI50 [9]: 4.5 µM
- TGI [9]: 17 µM
- GI50 [10]: 3.45 µM
- TGI [10]: 22.9 µM

SMILES: C/C(=C\c1ccc(Cl)cc1)C(C)(C)C(=O)O
- TGI [1]: > 100 µM
- TGI [2]: > 100 µM
- TGI [3]: > 100 µM
- TGI [4]: > 100 µM
- TGI [5]: > 100 µM
- TGI [6]: > 100 µM
- TGI [7]: > 100 µM
- TGI [8]: > 100 µM
- TGI [9]: > 100 µM
- TGI [10]: > 100 µM

SMILES: COc1ccccc1/C=C\c1cnnc2ccccc12
- TGI [1]: > 10 µM
- TGI [2]: > 10 µM
- TGI [3]: > 10 µM
- TGI [4]: > 10 µM
- TGI [5]: > 10 µM
- TGI [6]: > 10 µM
- TGI [7]: > 10 µM
- TGI [8]: > 10 µM
- TGI [9]: > 10 µM
- TGI [10]: > 10 µM

SMILES: Nc1ccc(-c2nc3ccc4[nH]ncc4c3c3c2CCCC3)cc1F
- GI50 [1]: 3.04 µM
- TGI [1]: 12.3 µM
- GI50 [2]: 1.42 µM
- TGI [2]: 6.77 µM
- GI50 [3]: 0.691 µM
- TGI [3]: 8.05 µM
- GI50 [4]: 0.316 µM
- TGI [4]: 15.5 µM
- GI50 [5]: 1.2 µM
- TGI [5]: 7.77 µM
- GI50 [6]: 0.686 µM
- TGI [6]: 5.5 µM
- GI50 [7]: 0.6 µM
- TGI [7]: 5.99 µM
- GI50 [8]: 2.48 µM
- TGI [8]: 32.1 µM
- GI50 [9]: 1.46 µM
- TGI [9]: 20.2 µM
- GI50 [10]: 1.69 µM
- TGI [10]: 23.5 µM

SMILES: COc1ccc(OC)c(-c2nc3sccn3c2/C=C2/C(=O)Nc3ccc(Cl)cc32)c1
- GI50 [1]: 18.4 µM
- TGI [1]: 33.9 µM
- GI50 [2]: 18.5 µM
- TGI [2]: 39.5 µM
- GI50 [3]: 23.1 µM
- TGI [3]: 58.9 µM
- GI50 [4]: 30.8 µM
- TGI [4]: > 100 µM
- GI50 [5]: 26.6 µM
- TGI [5]: 70.1 µM
- GI50 [6]: 20.8 µM
- TGI [6]: 67.3 µM
- GI50 [7]: 29.7 µM
- TGI [7]: > 100 µM
- GI50 [8]: 33.6 µM
- TGI [8]: > 100 µM
- GI50 [9]: 41.3 µM
- TGI [9]: > 100 µM
- GI50 [10]: 26.8 µM
- TGI [10]: 73.9 µM

SMILES: CC1(C)CCC[C@]23C(=O)O[C@](O)(C(=O)C4=C[C@@](C)(/C=C/CCCc5ccc6ccc7cccc8ccc5c6c78)CC[C@@]42O)[C@@H]13
- GI50 [1]: 0.176 µM
- TGI [1]: 0.323 µM
- GI50 [2]: 0.183 µM
- TGI [2]: 0.383 µM
- GI50 [3]: 0.148 µM
- TGI [3]: 0.425 µM
- GI50 [4]: 0.156 µM
- TGI [4]: 0.29 µM
- GI50 [5]: 0.167 µM
- TGI [5]: 0.422 µM
- GI50 [6]: 0.166 µM
- TGI [6]: 0.328 µM
- GI50 [7]: 0.132 µM
- TGI [7]: 0.299 µM
- GI50 [8]: 0.188 µM
- TGI [8]: 0.414 µM
- GI50 [9]: 0.179 µM
- TGI [9]: 0.326 µM
- GI50 [10]: 0.259 µM
- TGI [10]: 0.616 µM

SMILES: CCSc1oc(-c2ccccc2)nc1[P+](c1ccccc1)(c1ccccc1)c1ccccc1
- GI50 [1]: 0.418 µM
- TGI [1]: 2.16 µM
- GI50 [2]: 0.186 µM
- TGI [2]: 0.42 µM
- GI50 [3]: 0.622 µM
- TGI [3]: 4.66 µM
- GI50 [4]: 0.309 µM
- TGI [4]: 1.13 µM
- GI50 [5]: 0.0686 µM
- TGI [5]: 1.15 µM
- GI50 [6]: 0.286 µM
- TGI [6]: 1.86 µM
- GI50 [7]: 0.218 µM
- TGI [7]: 3.42 µM
- GI50 [8]: 0.293 µM
- TGI [8]: 3.88 µM
- GI50 [9]: 0.314 µM
- TGI [9]: 2.63 µM
- GI50 [10]: 0.217 µM
- TGI [10]: 1.48 µM

SMILES: COc1ccc(-c2ccc3c(NC(=O)C4CC4)n[nH]c3n2)cc1
- GI50 [1]: > 25 µM
- TGI [1]: > 25 µM
- GI50 [2]: > 25 µM
- TGI [2]: > 25 µM
- GI50 [3]: > 25 µM
- TGI [3]: > 25 µM
- GI50 [4]: > 25 µM
- TGI [4]: > 25 µM
- GI50 [5]: > 25 µM
- TGI [5]: > 25 µM
- GI50 [6]: > 25 µM
- TGI [6]: > 25 µM
- GI50 [7]: > 25 µM
- TGI [7]: > 25 µM
- GI50 [8]: 15.9 µM
- TGI [8]: > 25 µM
- GI50 [9]: > 25 µM
- TGI [9]: > 25 µM
- GI50 [10]: > 25 µM
- TGI [10]: > 25 µM

SMILES: CCOC1OCCCC1Br (centres undefined)
- TGI [1]: > 100 µM
- TGI [2]: > 100 µM
- TGI [3]: > 100 µM
- TGI [4]: > 100 µM
- TGI [5]: > 100 µM
- TGI [6]: > 100 µM
- TGI [7]: > 100 µM
- TGI [8]: > 100 µM
- TGI [9]: > 100 µM
- TGI [10]: > 100 µM

SMILES: O=C(O)c1c(O)c2cc(Br)ccc2oc1=O
- TGI [1]: > 100 µM
- TGI [2]: > 100 µM
- TGI [3]: > 100 µM
- TGI [4]: > 100 µM
- TGI [5]: > 100 µM
- TGI [6]: > 100 µM
- TGI [7]: > 100 µM
- TGI [8]: > 100 µM
- TGI [9]: > 100 µM
- TGI [10]: > 100 µM
